Data on 2 molecules can be found in ChEMBL document CHEMBL5649169 (ChemMedChem, 2018).

In assay [1] the target is Heterogeneous nuclear ribonucleoprotein R (Homo sapiens) (UniProt O43390).
Assay [2] deals with Methylcrotonoyl-CoA carboxylase beta chain, mitochondrial (Homo sapiens) (UniProt Q9HCC0).
Assay [3] deals with NADH dehydrogenase [ubiquinone] 1 alpha subcomplex subunit 13 (Homo sapiens) (UniProt Q9P0J0).
Assay [4] deals with Citrate synthase, mitochondrial (Homo sapiens) (UniProt O75390).
Assay [5] has as its target 10 kDa heat shock protein, mitochondrial (Homo sapiens) (UniProt P61604).
Assay [6] deals with Conserved oligomeric Golgi complex subunit 6 (Homo sapiens) (UniProt Q9Y2V7).
Assay [7] deals with Palmitoyl-protein thioesterase 1 (Homo sapiens) (UniProt P50897).
For assay [8], the target named is La-related protein 1 (Homo sapiens) (UniProt Q6PKG0).
For assay [9], the target named is Elongation factor Tu, mitochondrial (Homo sapiens) (UniProt P49411).
Assay [10] deals with Phosphopentomutase (Homo sapiens) (UniProt Q96G03).
Assay [11] has as its target Tubulin beta-2B chain (Homo sapiens) (UniProt Q9BVA1).
The target in assay [12] is ER lumen protein-retaining receptor 1 (Homo sapiens) (UniProt P24390).
In assay [13] the target is N-acetylneuraminate-9-phosphate synthase (Homo sapiens) (UniProt Q9NR45).
For assay [14], the target named is Sec1 family domain-containing protein 1 (Homo sapiens) (UniProt Q8WVM8).
Assay [15] concerns the target Bone morphogenetic protein receptor type-1A (Homo sapiens) (UniProt P36894).
Assay [16] concerns the target RNA-binding protein Musashi homolog 2 (Homo sapiens) (UniProt Q96DH6).
The target in assay [17] is Hydroxyacyl-coenzyme A dehydrogenase, mitochondrial (Homo sapiens) (UniProt Q16836).
For assay [18], the target named is Phosphorylated adapter RNA export protein (Homo sapiens) (UniProt Q9H814).
Assay [19] has as its target Activated RNA polymerase II transcriptional coactivator p15 (Homo sapiens) (UniProt P53999).
The target of assay [20] is Periphilin-1 (Homo sapiens) (UniProt Q8NEY8).
In assay [21] the target is Kinesin-like protein KIF2C (Homo sapiens) (UniProt Q99661).
A further assay deals with Cyclin-I (Homo sapiens) (UniProt Q14094).
Assay [22] is filed under the species Homo sapiens.
Assay [23] deals with Dolichyl-diphosphooligosaccharide--protein glycosyltransferase subunit STT3B (Homo sapiens) (UniProt Q8TCJ2).
In assay [24] the target is DnaJ homolog subfamily C member 13 (Homo sapiens) (UniProt O75165).
For assay [25], the species on record is Homo sapiens. This is another data set of the same source.
For assay [26], the target named is CCAAT/enhancer-binding protein zeta (Homo sapiens) (UniProt Q03701).
In assay [27] the target is NUAK family SNF1-like kinase 2 (Homo sapiens) (UniProt Q9H093).
In assay [28] the target is Lanosterol synthase (Homo sapiens) (UniProt P48449).
Assay [29] concerns the target 14-3-3 protein sigma (Homo sapiens) (UniProt P31947).
For assay [30], the target named is FAD synthase (Homo sapiens) (UniProt Q8NFF5).
Assay [31] addresses Testis-expressed protein 10 (Homo sapiens) (UniProt Q9NXF1).
The target in assay [32] is Nucleolar RNA helicase 2 (Homo sapiens) (UniProt Q9NR30).
Assay [33] deals with Echinoderm microtubule-associated protein-like 4 (Homo sapiens) (UniProt Q9HC35).
Assay [34] addresses E3 ubiquitin-protein ligase RBX1 (Homo sapiens) (UniProt P62877).
Assay [35] concerns the target Serine/arginine-rich splicing factor 9 (Homo sapiens) (UniProt Q13242).
Assay [36] deals with N(G),N(G)-dimethylarginine dimethylaminohydrolase 1 (Homo sapiens) (UniProt O94760).
Assay [37] has as its target Antigen peptide transporter 1 (Homo sapiens) (UniProt Q03518).
For assay [38], the target named is Mitochondrial import inner membrane translocase subunit Tim10 (Homo sapiens) (UniProt P62072).
Assay [39] addresses Glucocorticoid receptor (Homo sapiens) (UniProt P04150).
For assay [40], the target named is 45 kDa calcium-binding protein (Homo sapiens) (UniProt Q9BRK5).
For assay [41], the target named is eIF5-mimic protein 1 (Homo sapiens) (UniProt Q9Y6E2).
Assay [42] addresses Ribosome biogenesis protein WDR12 (Homo sapiens) (UniProt Q9GZL7).
Assay [43] addresses Large subunit GTPase 1 homolog (Homo sapiens) (UniProt Q9H089).
The target of assay [44] is Desmoglein-1 (Homo sapiens) (UniProt Q02413).
In assay [45] the target is E3 ubiquitin-protein ligase RNF5 (Homo sapiens) (UniProt Q99942).
For assay [46], the target named is Putative uncharacterized protein ZNF436-AS1 (Homo sapiens) (UniProt Q8NC38).
Note: assay method not described here.

On to `Cc1ccc(C(=O)Nc2cccc(C(F)(F)F)c2)cc1Nc1nc(-c2cccnc2)nc2nn(C)cc12`, for which the ED50 in assay [1] turned out to be 8.23 nM; in assay [2], 102 nM; in [3], 5.85 nM; in [4], 62.4 µM; in assay [5] it was 76.5 nM; in [6], 139 µM. Further, the ED50 in assay [7] was 26.8 µM; in assay [8] it was 1690 nM; in [9], 32.7 µM; in [10], 149 µM; in [11], 14 nM; in assay [12], 0.253 nM. This molecule returned an ED50 in assay [13] of 90 nM.

Consider `Cc1ccc(C(=O)Nc2cccc(C(F)(F)F)c2)cc1Nc1nc(-c2cccnc2)nc2c1cnn2C`, for which the ED50 in [14] was found to be 171 nM; in assay [15], 990 nM; in assay [16] it was 1.24 nM; in assay [17], 6.25 nM; in assay [18], 3.51 µM; in [19], 1.09 mM. The ED50 is 336 nM in [20]; 20 nM in assay [21]; 26.5 µM at Cyclin-I (Homo sapiens); 5.36 µM in the assay listed under Homo sapiens [22]; 626 nM in assay [23]; 10.3 µM in assay [24]. Further, the ED50 in the assay listed under Homo sapiens [25] worked out at 15.5 µM; in assay [26] it was 3.24 µM; in assay [27] it was 1310 nM; in assay [28] it was 112 µM; in assay [29] it was 3.06 nM; in assay [30] it was 998 nM. For the same molecule, the ED50 in assay [31] worked out at 18 µM; in [32], 384 nM; in assay [33] it was 761 nM; in [34] it was 2980 nM; in assay [35] it was 12.4 nM; in assay [36] it was 61.8 µM. The ED50 is 63.9 nM in assay [37]; 27.9 nM in [38]; 53.3 µM in assay [39]; 519 nM in assay [40]; 16.7 nM in [41]; 1.21 nM in assay [42]. In addition, the ED50 in assay [43] came out at 0.521 nM; in [44] it was 47.5 µM; in assay [45], 23.2 µM; in [46], 8.64 µM.
